Reference: ChEMBL document CHEMBL1145508, “Role of homoserine transacetylase as a new target for antifungal agents” (Antimicrob Agents Chemother, 2007)
pIC50, pKi: −log10 of the molar value.

Key:
[1] = Inhibition of Cryptococcus neoformans H99 HTA expressed in Escherichia coli BL21(DE3) cells
[2] = Inhibition of Schizosaccharomyces pombe HTA in presence of 10 uM acetyl-CoA substrate
[3] = Inhibition of Schizosaccharomyces pombe HTA in presence of 100 uM acetyl-CoA substrate

Q: Which results are given for `NC(=O)c1cccc2c1NC(C(=O)O)C1CC=CC21` (centres undefined)?
A: pIC50 [1]: 5.35; pKi [1]: 4.04; pIC50 [2]: 3.81; pIC50 [3]: 3.54
